In test [1] the target is Substance-P receptor (Rattus norvegicus, UniProt P14600). Kind of test: Compound was tested for its binding affinity to NK1 receptor in [3H]SP binding assay on rat brain membranes.
The target of test [2] is Substance-P receptor (Homo sapiens, UniProt P25103). As to the kind of experiment: Compound was tested for its binding affinity to NK1 receptor in [3H]SP binding assay on human IM9 lymphoblasts cultured cell line.
Test [3] deals with Rattus norvegicus. Kind of test: Compound was administered intravenously and evaluated in vivo for its inhibition of SP-induced plasma extravasation in rat. The following applies: iv. The format is functional.
Test [4] relates to Rattus norvegicus. As to the kind of experiment: Compound was administered perorally and evaluated in vivo for its inhibition of SP-induced plasma extravasation in rat. It counts as functional. The following applies: po.
The subject of test [5] is Rattus norvegicus. As to the kind of experiment: Compound was administered orally and evaluated in vivo for its inhibition of SP-induced plasma extravasation in rat. It counts as functional. Particulars: po.

Chain of Substance-P receptor (Homo sapiens, UniProt P25103) (P25103 whole entry): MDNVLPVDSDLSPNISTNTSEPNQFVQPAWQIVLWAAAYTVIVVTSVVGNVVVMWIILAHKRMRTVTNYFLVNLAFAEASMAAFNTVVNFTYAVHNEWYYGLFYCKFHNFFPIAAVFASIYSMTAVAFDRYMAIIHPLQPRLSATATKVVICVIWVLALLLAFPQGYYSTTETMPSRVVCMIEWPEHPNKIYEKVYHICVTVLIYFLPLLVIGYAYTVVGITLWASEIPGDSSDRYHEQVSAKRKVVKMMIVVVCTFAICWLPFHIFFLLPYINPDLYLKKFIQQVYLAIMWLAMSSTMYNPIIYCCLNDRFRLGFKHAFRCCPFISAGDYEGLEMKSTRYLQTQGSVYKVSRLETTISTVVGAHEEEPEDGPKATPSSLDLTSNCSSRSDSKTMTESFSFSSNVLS
Chain of Substance-P receptor (Rattus norvegicus, UniProt P14600) (P14600 whole entry): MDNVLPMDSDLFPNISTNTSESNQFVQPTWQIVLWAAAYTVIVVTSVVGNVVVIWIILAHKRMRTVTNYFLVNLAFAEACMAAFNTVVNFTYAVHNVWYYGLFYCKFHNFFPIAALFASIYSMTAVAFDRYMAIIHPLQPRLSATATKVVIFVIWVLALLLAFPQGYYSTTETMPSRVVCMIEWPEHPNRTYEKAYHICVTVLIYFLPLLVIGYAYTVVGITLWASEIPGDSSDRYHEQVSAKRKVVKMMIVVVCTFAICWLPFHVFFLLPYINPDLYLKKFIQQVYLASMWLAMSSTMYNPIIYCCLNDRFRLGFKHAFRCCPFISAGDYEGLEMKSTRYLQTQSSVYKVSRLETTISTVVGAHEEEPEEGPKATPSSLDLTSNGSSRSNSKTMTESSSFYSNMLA

Turning to `CN(C)c1ccccc1CC(=O)N1C[C@H]2[C@@H](C1)C(c1ccccc1)(c1ccccc1)SC[C@@H]2O`, the IC50 (as a rule, the concentration needed to halve the response being measured) in test [1] stood at 77 nM; in test [2], 370 nM.

Take `COc1ccccc1[C@H](C)C(=O)N1C[C@@H]2[C@H](C1)[C@@](O)(c1ccccc1OC)CSC2(c1ccccc1)c1ccccc1`: the figures for the IC50 in test [1] and in test [2] were 3000 nM and 38 nM, respectively.

With `CN(C)CCCOc1ccccc1CC(=O)N1CC2C(=O)CSC(c3ccccc3)(c3ccccc3)C2C1` (stereo unspecified), the IC50 came out at 26 nM in test [1] and 51 nM in test [2].

In test [1], `CN(C)c1ccccc1CC(=O)N1C[C@@H]2C(=O)C[S+]([O-])C(c3ccccc3)(c3ccccc3)[C@@H]2C1` (stereo partly specified) returned an IC50 of 470 nM.

Turning to `COc1ccccc1[C@H](SC)C(=O)N1CC2C(=O)CSC(c3ccccc3)(c3ccccc3)C2C1` (stereo partly specified), the figures for the IC50 in test [1] and in test [2] were 5 nM and 15 nM, respectively. Further, the ED50 (commonly the dose at which the effect has come halfway, by size or by number of responders) in test [3] is 0.1 mg/kg; in test [4], 0.8 mg/kg.

Take `COc1ccccc1CC(=N)N1C[C@@H]2C(=O)CCC(c3ccccc3)(c3ccccc3)[C@@H]2C1`: the IC50 in test [1] was 8 nM; in test [2] it was 49 nM.

Consider `CN(C)c1ccccc1CC(=O)N1CC2C(=O)CSC(c3ccccc3)(c3ccccc3)C2C1` (stereo unspecified), for which the IC50 was determined as 41 nM in test [1] and 83 nM in test [2].

On to `COc1ccccc1[C@H](C)C(=O)N1C[C@@H]2[C@H](C1)C(c1ccccc1)(c1ccccc1)CC[C@@]2(O)c1ccccc1OC` [DAPITANT], for which the IC50 in test [1] came out at 1400 nM; in test [2], 13 nM.

Regarding `COc1ccccc1CC(=N)N1CC2C(=O)CSC(c3ccccc3)(c3ccccc3)C2C1` (stereo unspecified), the ED50 in test [5] is greater than 10 mg/kg; in test [3] it was less than 1 mg/kg. The IC50 in test [1] came out at 2 nM; in test [2], 9 nM.

For the origin of these results see ChEMBL document CHEMBL1128654, “4,4-Diphenyl-7-perhydrothiapyrano[3,4-c]pyrrolone, a new series of substance P receptors antagonists” (Bioorg Med Chem Lett, 1995).
